Key:
[1] = test system: ATF4-G4 (Pu22T) (DNA, G4) TAAGGGAGGGAGGGAAGGGAGC; assay: CD melting at 264 nm; settings: 5 mM K+ (potassium phosphate); pH 7; 20 µM DNA; COP concentration not given
[2] = test system: ATF4-G4 (Pu22T) (DNA, G4) TAAGGGAGGGAGGGAAGGGAGC; assay: fluorescence titration; settings: 50 mM K+; 0.2 µM COP, DNA added stepwise; excitation 377 nm, emission 520-600 nm
[3] = test system: ATF4-G4 (Pu22T) (DNA, G4) TAAGGGAGGGAGGGAAGGGAGC; assay: NMR solution structure and 1H NMR titration; settings: 10 mM K+ (structure); 50 mM K+ (titration); pH 7, 25 °C; 2.11 mM DNA with 2.4 equivalents COP

ΔTm [1]: 25 °C | Kd [2]: ~ 3.9 µM | binding [3]: yes
SMILES: c1c2c(cc3c1OCO3)-c1cc3ccc4c(c3c[n+]1CC2)OCO4

— publication PMC11425212 (2024)
